# Experimental data as given in patent publication US20130253020A1, “Treatment of Degenerative Disc Diseases” (priority 2012, published 2013).
# What was measured:
# [1] = system: advanced glycation end-products (AGEs) in nucleus pulposus (NP) tissues; experiment: AGEs in NP disc tissue: autofluorescence of acid hydrolysates divided by collagen content, after thiazolium salt incubation; parameters: species or system human; details: 4 days
# Procedure: Eleven lumbar spines (T12/L1-L5/S1) were collected fresh frozen cadavers consisting of 5 males and 6 females with a mean age of 82.5 years ±10.2. The cross-sections of the lumbar disc were visually categorized into Thompson grades 1 to 5 and corroborated with fluoroscopic imaging. The grade 1 (“Control”) and grade 5 (“Degenerate”) discs were used (total 27 discs). The discs were separated into annulus fibrosus (AF) and nucleus pulposus (NP) tissues. The Control discs were tested mechanically and then divided to undergo 0, 2, 4, 8, and 10 days of ribosylation in 0.6M ribose at 37° C. The treated Control discs, along with the degenerated discs were then tested mechanically using a dynamic microindentation device in 0.15M PBS at 20° C. using the Biopent 1000 reference point indentation system (Active Life Scientific, CA). A 1.47 mm diameter cylindrical probe cyclically indented the tissue to a depth of 300 μm at 1 Hz to generate a force displacement curve. Three distinct sites per AF/NP were measured and averaged between the sites. The resulting force-deformation curves, accounting for the probe geometry, were used to compute elastic modulus and tan δ.
# Following mechanical measurements, the O-day and 4-day treated Control NP tissues were incubated in 0.15M of a thiazolium salt known to cleave AGEs products (Oturai P S, Christensen M, Rolin B, Pedersen K E, Mortensen S B, Boel E. Effects of advanced glycation end-product inhibition and cross-link breakage in diabetic rats. Metab Clin Exp 2000:49:996-1000.) for 4 days. […] Following the second incubation, all tissues were mechanically assessed again, and then subjected to acid hydrolysis by 6N hydrochloric acid (16 hours, 110C). The collagen crosslinking by AGEs, a sugar-derived posttranslational modification of amino acids, was quantified by measuring the autofluorescence of the acid hydrolysates at […] and divided by collagen content (Monnier V M, Kohn R R, Cerami A. Accelerated age-related browning of human collagen in diabetes mellitus. Proc Natl Acad Sci USA 1984; 81:583-587). […]
# [2] = system: nucleus pulposus (NP) tissues; experiment: Dynamic microindentation of NP tissue (indentation modulus, tan δ) after thiazolium salt incubation; parameters: species or system human; details: ribosylated or degenerated, thiazolium salt solution 4 days, FIG. 2
# Procedure: Eleven lumbar spines (T12/L1-L5/S1) were collected fresh frozen cadavers consisting of 5 males and 6 females with a mean age of 82.5 years ±10.2. The cross-sections of the lumbar disc were visually categorized into Thompson grades 1 to 5 and corroborated with fluoroscopic imaging. The grade 1 (“Control”) and grade 5 (“Degenerate”) discs were used (total 27 discs). The discs were separated into annulus fibrosus (AF) and nucleus pulposus (NP) tissues. The Control discs were tested mechanically and then divided to undergo 0, 2, 4, 8, and 10 days of ribosylation in 0.6M ribose at 37° C. […] Three distinct sites per AF/NP were measured and averaged between the sites. […]
# Following mechanical measurements, the O-day and 4-day treated Control NP tissues were incubated in 0.15M of a thiazolium salt known to cleave AGEs products (Oturai P S, Christensen M, Rolin B, Pedersen K E, Mortensen S B, Boel E. Effects of advanced glycation end-product inhibition and cross-link breakage in diabetic rats. Metab Clin Exp 2000:49:996-1000.) for 4 days. […] Following the second incubation, all tissues were mechanically assessed again, and then subjected to acid hydrolysis by 6N hydrochloric acid (16 hours, 110C). […]
# primary spine disc cells = experiment: mRNA expression of inflammatory cytokines and r-AGEs in primary spine disc cells exposed to AGEs; type: cell-based, human and bovine; details: FIG. 3
# Excerpt: Primary spine disc cells were isolated from both human and bovine spine discs. The tissues were digested using a cocktail containing collagenase P, trypsin, and other enzymes to release the primary cells embedded within the tissues (Neidlinger-Wilke C, Liedert A, Wuertz K, Buser Z, Rinkler C, Käfer W, et al. Mechanical stimulation alters pleiotrophin and aggrecan expression by human intervertebral disc cells and influences their capacity to stimulate endothelial migration. Spine 2009; 34:663-669). These cells were then conditioned and allowed to expand for 3 passages. After conditioning in normal cell culture media, the cells were exposed to several conditions: Control, bovine serum albumin, and AGEs. The treatments were dissolved directly in the cell culture media and then the cells were subjected to these conditions for 24 hours. Messenger ribose nucleic acids (mRNA) were then extracted from these cells and amplified into respective complimentary deoxyribose nucleic acids (cDNA). The cDNA sequences were tested for the normalized expression (normalized to the housekeeping gene, GAP-DH) of Interleukin (IL)-4, IL-6 (both of which initiate the inflammatory pain response), and the Receptor-for Advanced Glycation End-products (r-AGEs). The normalized expressions compared to the controls were computed by the delta-delta CT method.
smiles,measurement,setting,value
"O=C(C[n+]1ccsc1)c1ccccc1.[Br-] [PTB, N-phenacyl thiazolium bromide]",AGEs in NP disc tissue,"[1]; Grade 1 (Control) NP tissue, 0.15M PTB solution",significant reductions
same,AGEs in NP disc tissue,"[1]; Grade 5 (Degenerate) NP tissue, 0.15M PTB solution",significant reductions
same,AGEs in NP disc tissue,"[1]; Grade I+Ribosylation NP tissue (4-day ribosylation), 0.15M thiazolium salt",significant reductions
same,"mechanical properties of NP tissue (indentation modulus, tan δ)",[2],rescuing effect
same,"cellular inflammatory response, marked by the cytokines IL-4 and IL-6","primary spine disc cells; concurrent administration with AGEs in cell culture media, 24 hours",suppresses this response
same,Interleukin-1 expression,primary spine disc cells; primary spinal disc cells,decrease
same,Interleukin-6 expression,primary spine disc cells; primary spinal disc cells,decrease
same,expression of the Receptor-for-Advanced Glycation End-Products,primary spine disc cells; primary spinal disc cells,reduction
